Earlier results as cited in patent US8167920B2, “Intranasal delivery of compounds that reduce intrancranial pressure” (Codman & Shurtleff, Inc., priority 2006, dated 2012).

Experiments:
[1] = system: rat mesenteric lymphatics
[2] = system: mesenteries (lymphatic pump); conditions: 15 minutes superfusion of 30 uM into the mesenteries

OO [hydrogen peroxide]
inhibition of the active lymph pump [1]: intense inhibition

COC(=O)[C@@H](N)CCCNC(=N)N[N+](=O)[O-] [L-NAME]
increase in lymphatic pump flow index [2]: ~40%
